Where two headings read alike, the source gives them in different places.
What was measured:
in vitro = assay type: cell-based, human; conditions: human, 50% reduction in the level of ATP in HOS cells
Method in brief: (§1)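 Cells exposed to compounds over a concentration range for 48 hrs at 37° C. Viability read as cellular ATP by luciferase (ATPlite) luminescence after lysis, normalised to untreated cells; CC50 derived by regression fit.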

[1] = tested on: HIV-1 constructs containing mutant IN Y143R; assay: microbe, parasite or virus in culture; assay type: cell-based; conditions: Human immunodeficiency virus 1
Method in brief: (§2)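 Single-round infectivity assay using luciferase-reporter pNLNgoMIVR−ΔEnv.LUC virus carrying site-directed integrase mutants, produced in 293 cells. Activity normalized to infectivity without compound; EC50 from regression fit.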

[2] = tested on: HIV-1 constructs containing mutant IN N155H; assay: microbe, parasite or virus in culture; assay type: cell-based; conditions: Human immunodeficiency virus 1
Method in brief: as §2

[3] = tested on: HIV-1 constructs containing mutant IN G140S-Q148H; assay: microbe, parasite or virus in culture; assay type: cell-based; conditions: Human immunodeficiency virus 1
Method in brief: as §2

[4] = tested on: HIV-1 constructs containing mutant IN R263K; assay: Single-round HIV-1 infectivity assay, IN mutant R263K; assay type: cell-based; conditions: Human immunodeficiency virus 1
Protocol: (§3) Single-Round HIV-1 Infectivity Assay.
(§4) Human embryonyl kidney cell culture cell line 293 was acquired from the American type Culture Collection (ATCC).
(§5) […]. […] The virus-containing supernatants were then harvested, clarified by low-speed centrifugation, filtrated, and diluted for preparation in infection assays. […] After compound incorporation and activation in the cell, 100 μL of virus-stock diluted to achieve a maximum luciferase signal between 0.2 and 1.5 RLUs was added to each well and further incubated at 37° C. for 48 hrs. […] Activity was normalized to infectivity in the absence of target compounds. KaleidaGraph (Synergy Software, Reading, Pa.) was used to perform regression analysis on the data. EC50 values were determined from the fit model.
(§6) pNLNgoMIVR^−ΔEnv.LUC has been described previously (Zhao et al. 2008). The integrase codon reading frame was removed from pNLNgoMIVR^−ΔEnv LUC (between KpnI and SalI sites) and placed between the KpnI and SalI sites of pBluescript II KS+. Using that construct as the wild-type template, we prepared the following HIV-1 Integrase-resistant mutants via the QuikChange II XL (Stratagene, La Jolla, Calif.) site-directed mutagenesis protocol: H51Y, T66I, E92Q, G118R, Y143R, Q148H, Q148K, N155H, R263K, G140S+Q148H, G140A+Q148K, E138K+Q148K, and H51Y+R263K. The following sense with cognate antisense (not shown) oligonucleotides (Integrated DNA Technologies, Coralville, Iowa) were used in the mutagenesis: H51Y, 5′-[…]-3; T66I, 5′-[…]-3′; E92Q, 5′-[…]-3′; G118R, 5′-[…]-3′; E138K, 5′-[…]-3; G140A, 5′-[…]-3; G140S, 5′-[…]-3′; Y143R, 5′-[…]-3′; Q148H, 5′-[…]-3′; Q148K, 5′-[…]-3; N155H, 5′-[…]-3′; R263K 5′-[…]-3′. The double mutation G140S+Q148H was constructed by using the previously generated Q148H mutant and the appropriate oligonucleotide for the 2nd mutation, G140S. The double mutation G140A+Q148K was made by using the Q148K mutant and the appropriate oligonucleotide for the 2nd mutation, G140A. The double mutation E138K+Q148K was made by using the Q148K mutant and the appropriate oligonucleotide for the 2nd mutation, E138K. The double mutation H51Y+R263K was constructed by using the previously generated H51Y mutant and the appropriate oligonucleotides for the 2nd mutation, R263K. The DNA sequence of each construct was verified independently by DNA sequence determination. The mutant integrase coding sequences from pBluescript II KS+ were then subcloned into pNLNgoMIVR^−ΔEnv LUC (between the KpnI and SalI sites) to produce the full-length mutant HIV-1 Integrase constructs. These DNA sequences were additionally checked independently by DNA sequence determination.

[5] = tested on: HIV-1 constructs containing mutant IN H51Y; assay: Single-round HIV-1 infectivity assay, IN mutant H51Y; assay type: cell-based; conditions: Human immunodeficiency virus 1; Table 8; read-out: EC50 (nM, IN mutants) H51Y
Protocol: as §3, §4, §5, §6

[6] = tested on: HIV-1 constructs containing wild-type IN; assay: microbe, parasite or virus in culture; assay type: cell-based; conditions: for Si (selectivity index): ratio of CC50 to EC50
[7] = tested on: HIV-1 constructs containing mutant IN E92Q; assay: Single-round HIV-1 infectivity assay, IN mutant E92Q; assay type: cell-based; conditions: Human immunodeficiency virus 1; Table 8; read-out: EC50 (nM, IN mutants) E92Q
Protocol: as §3, §4, §5, §6

[8] = tested on: HIV-1 constructs containing mutant IN T66I; assay: Single-round HIV-1 infectivity assay, IN mutant T66I; assay type: cell-based; conditions: Human immunodeficiency virus 1; Table 8; read-out: EC50 (nM, IN mutants) T66I
Protocol: as §3, §4, §5, §6

[9] = tested on: HIV-1 constructs containing mutant IN H51Y/R263K; assay: Single-round HIV-1 infectivity assay, IN double mutant H51Y/R263K; assay type: cell-based; conditions: Human immunodeficiency virus 1; Table 8; read-out: EC50 (nM, IN mutants) H51Y/R263K
Protocol: as §3, §4, §5, §6

[10] = tested on: HIV-1 constructs containing mutant IN G118R; assay: microbe, parasite or virus in culture; assay type: cell-based; conditions: Human immunodeficiency virus 1
Protocol: as §3, §4, §5, §6

HIV-1 integrase = HIV-1 integrase (Human immunodeficiency virus type 1 group M subtype B, UniProt P12497); assay: biochemical; assay type: biochemical
Method in brief: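 Compounds or DMSO added to 20 nM DNA and 400 nM integrase in 50 mM MOPS pH 7.2, 7.5 mM MgCl2, 14 mM 2-mercaptoethanol; 2 h at 37° C, quenched with formamide/SDS loading buffer. Products resolved on gels, imaged and quantified by densitometry.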

[11] = tested on: human osteosarcoma (HOS) cells; assay: in vitro; assay type: cell-based; conditions: Table 3; 50% reduction in the level of ATP in HOS cells
Method in brief: as §1

HIV-1 WT IN = assay: High growth serum assays in cells (WT); assay type: cell-based
[12] = Table 8, read-out: EC50 (nM, IN mutants) Y143R
[13] = Table 8, read-out: EC50 (nM, IN mutants) N155H
[14] = Table 8, read-out: EC50 (nM, IN mutants) G140S/Q148H
[15] = Table 8, read-out: EC50 (nM, IN mutants) R263K
[16] = Human immunodeficiency virus 1, Table 8, WT IN, read-out: EC50 (nM, WT)
[17] = Table 8, read-out: EC50 (nM, IN mutants) G118R
[18] = Table 3, read-out: EC50 (nM, IN Mutants) Y143R
[19] = Table 3, read-out: EC50 (nM, IN Mutants) N155H
[20] = Table 3, G140S-Q148H double mutant, read-out: EC50 (nM, IN Mutants) SH
[21] = Table 6, read-out: EC50 (nM, IN Mutants) R263K
[22] = Human immunodeficiency virus 1, Table 3, WT IN, read-out: EC50 (nM, WT)
[23] = Table 4, 3′-processing, read-out: IC50 (3^+-Processing)
[24] = Table 4, strand transfer, read-out: IC50 (Strand Transfer)
[25] = Table 6, read-out: EC50 (nM, IN Mutants) G118R

SMILES | CC50 (in vitro; Table 8) [µM] | EC50 [1, 12] [nM] | EC50 [2, 13] [nM] | EC50 [3, 14] [nM] | EC50 [4, 15] [nM] | EC50 [5] [nM] | EC50 [6, 16] [nM] | EC50 [7] [nM] | EC50 [8] [nM] | EC50 [9] [nM] | EC50 [10, 17] [nM] | CC50 (in vitro; Table 6) [µM] | EC50 [6, 22] [nM] | IC50 (HIV-1 integrase; [24]) [nM] | also measured
CC(=O)OCCCCCc1cnc2c(c1)c(NCCO)c(C(=O)NCc1ccc(F)cc1F)c(=O)n2O [XZ439, 5-(6-((2,4-Difluorobenzyl)carbamoyl)-8-hydroxy-5-((2-hydroxyethyl)amino)-7-oxo-7,8-dihydro-1,8-naphthyridin-3-yl)pentyl acetate] | > 250 | 4.1 ± 1 | 10.3 | 5.3 | 3.6 | 7.4 | 5.3 | 3.8 | 1.2 | 15.2 | 14.5 | – | – | – | –
O=C(NCc1ccc(F)cc1F)c1c(NCCO)c2cccnc2n(O)c1=O [XZ378, N-(2,4-difluorobenzyl)-1-hydroxy-4-((2-hydroxyethyl)amino)-2-oxo-1,2-dihydro-1,8-naphthyridine-3-carboxamide] | – | – | – | – | – | – | – | – | – | – | – | 23.5 ± 3 | 5.2 ± 0.6 | 10 ± 9 | CC50 (in vitro; Table 3): 23.5 ± 3 µM; EC50 [1, 18]: 4.6 ± 1.8 nM; EC50 [2, 19]: 24.6 ± 3.8 nM; EC50 [3, 20]: 43.1 ± 15.3 nM; EC50 [4, 21]: 26 nM; Si (selectivity index) ([6]; Table 3): 4,519; IC50 (HIV-1 integrase; [23]): 550 ± 70 nM; EC50 [10, 25]: 27.3 ± 1.4 nM
Nc1c(C(=O)NCc2ccc(F)cc2F)c(=O)n(O)c2ncc(CCS(=O)(=O)c3ccccc3)cc12 [XZ446, 4-Amino-N-(2,4-difluorobenzyl)-1-hydroxy-2-oxo-6-(2-(phenylsulfonyl)ethyl)-1,2-dihydro-1,8-naphthyridine-3-carboxamide] | > 250 | 0.6 | 2.1 | 5.2 | 5.3 | – | 2 ± 0.1 | 1.2 | – | – | 11.4 | – | – | – | IC50 (HIV-1 integrase; Table 10, strand transfer, read-out: IC50 (nM, ST)): 3.7 ± 1.3 nM
COc1cc2c(cc1Cc1cccc(Cl)c1F)c(=O)c(C(=O)O)cn2[C@H](CO)C(C)C [EVG, elvitegravir, reference compound] | > 250 | 7.9 | 90 | 5700 | 10 | 4.5 | 6.4 ± 0.8 | 154 | 66.2 | 52.6 | 21 | – | – | – | –
Cc1nnc(C(=O)NC(C)(C)c2nc(C(=O)NCc3ccc(F)cc3)c(O)c(=O)n2C)o1 [RAL, raltegravir, reference compound] | > 250 | – | – | – | 5.7 | 3.4 | – | 29.8 | 2.8 | 6 ± 2.3 | 35.5 | > 100 | – | – | CC50 (in vitro; Table 2): > 100 µM; EC50 ([6]; Human immunodeficiency virus 1, Table 6, WT IN, read-out: EC50 (nM, WT)): 4 ± 2 nM
O=C(NCc1ccc(F)cc1F)c1c(NCCCCc2ccccc2)c2cccnc2n(O)c1=O [XZ383, N-(2,4-difluorobenzyl)-1-hydroxy-2-oxo-4-((4-phenylbutyl)amino)-1,2-dihydro-1,8-naphthyridine-3-carboxamide] | – | – | – | – | – | – | – | – | – | – | – | – | 49.9 ± 13 | 280 ± 110 | CC50 [11]: 102 ± 8 µM; EC50 [1, 18]: 39.9 ± 14.7 nM; EC50 [2, 19]: 116 ± 21.9 nM; EC50 [3, 20]: 243 ± 38.7 nM; Si (selectivity index) ([6]; Table 3): 2,040; IC50 (HIV-1 integrase; [23]): 12200 ± 2000 nM
Nc1c(C(=O)NCc2ccc(F)cc2F)c(=O)n(O)c2ncccc12 [XZ384, 4-Amino-N-(2,4-difluorobenzyl)-1-hydroxy-2-oxo-1,2-dihydro-1,8-naphthyridine-3-carboxamide] | > 250 | – | – | – | 6.4 | 1 | – | 3 | 0.6 | 3.2 | 16.1 | > 250 | 1.1 ± 0.66 | 19 ± 2 | CC50 (in vitro; Table 3): > 250 µM; EC50 [4, 21]: 6.4 ± 2.3 nM; EC50 ([6]; Human immunodeficiency virus 1, read-out: EC50 (nM), Table 9, WT, normal 5% serum): 1.1 ± 0.66 nM; EC50 (HIV-1 WT IN; Human immunodeficiency virus 1, read-out: EC50 (nM), Table 9, 10% FBS): 0.8 ± 0.3 nM; EC50 (HIV-1 WT IN; Human immunodeficiency virus 1, read-out: EC50 (nM), Table 9, 15% FBS): 0.5 ± 0.05 nM; IC50 (HIV-1 integrase; Table 7, 3′-processing, read-out: IC50 (μM) 3′-P): 2500 ± 300 nM; EC50 [10, 25]: 16.1 ± 4.6 nM

Source: US9676771B2, “Compounds for inhibiting drug-resistant strains of HIV-1 integrase” (priority 2013, dated 2017)
